# Results reported in US20260240832A1, “USE OF NITROXOLINE COMPOUND IN ENHANCING EFFECT OF ANTIBACTERIAL AGENT” (Jiangsu Yahong Meditech Co., Ltd., priority 2022, published 2026).
# Read-outs that look alike come from different tables or passages of the source.
# Tests used:
# Type in all cases: cell-based
# [1] = system: drug-resistant Escherichia coli II (drug-resistant Escherichia coli 1864); test: Chessboard microbroth dilution MIC/FIC, compound A in combination with meropenem
# From the text: (§1) This experiment is designed to determine the minimum inhibitory concentration (MIC) of compound A in combination with meropenem against drug-resistant Escherichia coli I (a strain resistant to carbapenem antibiotics) and drug-resistant Escherichia coli II (a strain resistant to fluoroquinolone antibiotics, non-fluoroquinolone antibiotics, aminoglycoside antibiotics, glycopeptide antibiotics and carbapenem antibiotics), and to calculate the fractional inhibitory concentration (FIC) index.
# (§2) 1 strain of drug-resistant Escherichia coli II, namely drug-resistant Escherichia coli 1864, is provided by the School of Pharmacy of Fudan University. This strain is resistant to fluoroquinolone antibiotics (such as levofloxacin), non-fluoroquinolone antibiotics (such as nalidixic acid, nemofloxacin), aminoglycoside antibiotics (such as gentamicin), glycopeptide antibiotics (such as vancomycin) and carbapenem antibiotics (such as meropenem).
# (§3) According to the recommendation of the Clinical and Laboratory Standards Institute (CLSI), the microbroth dilution method designed by the chessboard method was used to determine the minimum inhibitory concentration (MIC) of compound A in combination with meropenem against the above strains, and the fractional inhibitory concentration (FIC) index was calculated.
# (§4) Compound A was dissolved in dimethyl sulfoxide to obtain a stock solution I with a concentration of 1280 mg/L. The stock solution I was diluted to 512 mg/L with sterile water to obtain a gradient dilution first tube solution I. The gradient dilution first tube solution I was subjected to 1:1 gradient dilution with sterile water to obtain a working solution I with a gradient range of 512 to 0.25 mg/L.
# (§5) Meropenem was dissolved in sterile water to obtain a stock solution II with a concentration of 5120 mg/L. The stock solution II was diluted to 1024 mg/L with sterile water to obtain a gradient dilution first tube solution II. The gradient dilution first tube solution II was subjected to 1:1 gradient dilution with sterile water to obtain a working solution II with a gradient range of 1024 to 0.5 mg/L.
# (§6) According to the method in Example 1, a drug sensitive plate was prepared with working solution I and working solution II, and the specific process will not be repeated here.
# (§7) (2) The culture medium of the bacterial solution: Cation-Adjusted Mueller-Hinton Broth (CAMHB), a product of BBL, USA, batch number 9015952.
# (§8) (3) Formulation method of bacterial solution: According to the direct colony suspension method, the test bacteria cultured overnight were prepared into a 0.5 McFarland turbidity tube using physiological saline. Then, the resulting solution was dilute 100 times with the above culture medium. 100 μL of the resulting bacterial solution was mixed well with the solution (100 μL) in each well of the drug sensitivity plate, and the final inoculation amount was 10^5 CFU/mL.
# (§9) (4) Culture conditions: Culturing at 35±2° C. for 20 hours in air.
# (§10) (1) The experimental results were determined according to the standard of CLSI 2019 M100 29th edition.
# (§11) wherein: FIC≤0.5 indicates synergistic effect; 0.5<FIC≤1.0 indicates additive effect; 1<FIC≤2.0 indicates irrelevant effect; and FIC>2 indicates antagonistic effect.
# [2] = system: carbapenem-resistant Acinetobacter baumannii; test: as above; conditions: for MIC: Acinetobacter baumannii, read-out: Compound A MIC alone; for Compound A MIC in combination: with meropenem
# From the text: This experiment is designed to determine the minimum inhibitory concentration (MIC) of compound A in combination with meropenem against carbapenem-resistant Acinetobacter baumannii and to calculate the fractional inhibitory concentration (FIC) index.
# Test bacteria: 10 strains of carbapenem-resistant Acinetobacter baumannii are clinically isolated strains, and are provided by Shanghai Junji Medical Laboratory Co., Ltd.
# as §3
# Compound A was dissolved in dimethyl sulfoxide to obtain a stock solution I with a concentration of 51200 mg/L. The stock solution I was subjected to 1:1 gradient dilution with dimethyl sulfoxide to obtain a dilution solution with a concentration range of 51200 to 25 mg/L. The corresponding concentrations were added to sterile water for 100-fold dilution to obtain working solution I with a concentration range of 512 to 0.25 mg/L.
# Meropenem was dissolved in sterile water to obtain a stock solution with a concentration of 5120 mg/L. The […] stock solution was subjected to 1:1 gradient dilution with sterile water to obtain a working solution II with a concentration range of 512 to 0.25 mg/L.
# as §6, §7, §8, §9
# (1) The experimental results were determined according to the standard of CLSI 2020 M100 30th edition.
# as §11
# [3] = system: drug-resistant Escherichia coli I (a strain resistant to carbapenem antibiotics); test: as above; conditions: for MIC: Escherichia coli, read-out: Compound A MIC alone; for Compound A MIC in combination: with meropenem
# From the text: as §1
# 3 strains of drug-resistant Escherichia coli I, namely drug-resistant Escherichia coli 18-W09-093, drug-resistant Escherichia coli 18-W37-025, and drug-resistant Escherichia coli 18-W37-032, are provided by Shanghai Junji Medical Laboratory Co., Ltd. These 3 strains are all resistant to carbapenem antibiotics (e.g., meropenem).
# as §3, §4, §5, §6, §7, §8, §9, §10, §11
# [4] = system: drug-resistant Escherichia coli 1864; test: MIC of antibiotics against drug-resistant Escherichia coli II (resistance profile of the strain)
# From the text: as §2
# [5] = strain 1864, compound A + meropenem
# [6] = strain No. 1, compound A + meropenem
# [7] = strain No. 2, compound A + meropenem
# [8] = strain No. 3, compound A + meropenem
# [9] = strain No. 4, compound A + meropenem
# [10] = strain No. 5, compound A + meropenem
# [11] = strain No. 6, compound A + meropenem
# [12] = strain No. 7, compound A + meropenem
# [13] = strain No. 8, compound A + meropenem
# [14] = strain No. 9, compound A + meropenem
# [15] = strain No. 10, compound A + meropenem
# [16] = strain 18-W09-093, compound A + meropenem
# [17] = strain 18-W37-025, compound A + meropenem
# [18] = strain 18-W37-032, compound A + meropenem
# [19] = drug-resistant Escherichia coli 1864, read-out: MIC
molecule,measurement,setting,value
"O=[N+]([O-])c1cc(Cl)c2cccnc2c1O [Compound A, 5-chloro-7-nitro-8-hydroxyquinoline]",MIC,"[1]; Escherichia coli, strain 1864, read-out: Compound A MIC alone",4 µg/mL
same,effect of the combination (summary of Table 4),"[1]; compound A + meropenem, drug-resistant Escherichia coli II",synergistic effect (FIC≤0.5 indicates synergistic effect)
same,FIC index,[1]; [5],0.14
same,Results,[1]; [5],Synergistic
same,Compound A MIC in combination,"[1]; strain 1864, with meropenem",0.5 µg/mL
same,MIC,[2]; strain No. 1,32 µg/mL
same,MIC,[2]; strain No. 2,16 µg/mL
same,MIC,[2]; strain No. 3,16 µg/mL
same,MIC,[2]; strain No. 4,16 µg/mL
same,MIC,[2]; strain No. 5,16 µg/mL
same,MIC,[2]; strain No. 6,16 µg/mL
same,MIC,[2]; strain No. 7,16 µg/mL
same,MIC,[2]; strain No. 8,8 µg/mL
same,MIC,[2]; strain No. 9,8 µg/mL
same,MIC,[2]; strain No. 10,16 µg/mL
same,change of the MIC of meropenem by the combination,[2]; compound A + meropenem,significantly reduce
same,effect of the combination (summary of Table 5),[2]; compound A + meropenem,synergistic effect (FIC≤0.5 indicates synergistic effect)
same,FIC index,[2]; [6],0.127
same,Results,[2]; [6],Synergistic
same,Compound A MIC in combination,[2]; strain No. 1,0.06 µg/mL
same,FIC index,[2]; [7],0.129
same,Results,[2]; [7],Synergistic
same,Compound A MIC in combination,[2]; strain No. 2,0.06 µg/mL
same,FIC index,[2]; [8],0.129
same,Results,[2]; [8],Synergistic
same,Compound A MIC in combination,[2]; strain No. 3,0.06 µg/mL
same,FIC index,[2]; [9],0.129
same,Results,[2]; [9],Synergistic
same,Compound A MIC in combination,[2]; strain No. 4,0.06 µg/mL
same,FIC index,[2]; [10],0.129
same,Results,[2]; [10],Synergistic
same,Compound A MIC in combination,[2]; strain No. 5,0.06 µg/mL
same,FIC index,[2]; [11],0.129
same,Results,[2]; [11],Synergistic
same,Compound A MIC in combination,[2]; strain No. 6,0.06 µg/mL
same,FIC index,[2]; [12],0.254
same,Results,[2]; [12],Synergistic
same,Compound A MIC in combination,[2]; strain No. 7,0.06 µg/mL
same,FIC index,[2]; [13],0.133
same,Results,[2]; [13],Synergistic
same,Compound A MIC in combination,[2]; strain No. 8,0.06 µg/mL
same,FIC index,[2]; [14],0.133
same,Results,[2]; [14],Synergistic
same,Compound A MIC in combination,[2]; strain No. 9,0.06 µg/mL
same,FIC index,[2]; [15],0.129
same,Results,[2]; [15],Synergistic
same,Compound A MIC in combination,[2]; strain No. 10,0.06 µg/mL
same,MIC,[3]; strain 18-W09-093,32 µg/mL
same,MIC,[3]; strain 18-W37-025,32 µg/mL
same,MIC,[3]; strain 18-W37-032,32 µg/mL
same,effect of the combination (summary of Table 4),"[3]; compound A + meropenem, drug-resistant Escherichia coli I",synergistic effect (FIC≤0.5 indicates synergistic effect)
same,change of the MIC of meropenem by the combination,"[3]; compound A + meropenem, drug-resistant Escherichia coli I and II",significantly reduce
same,FIC index,[3]; [16],0.258
same,Results,[3]; [16],Synergistic
same,Compound A MIC in combination,[3]; strain 18-W09-093,8 µg/mL
same,FIC index,[3]; [17],0.258
same,Results,[3]; [17],Synergistic
same,Compound A MIC in combination,[3]; strain 18-W37-025,8 µg/mL
same,FIC index,[3]; [18],0.281
same,Results,[3]; [18],Synergistic
same,Compound A MIC in combination,[3]; strain 18-W37-032,8 µg/mL
C[C@H]1COc2c(N3CCN(C)CC3)c(F)cc3c(=O)c(C(=O)O)cn1c23 [Levofloxacin],MIC,[4]; [19],32 µg/mL
CCn1cc(C(=O)O)c(=O)c2ccc(C)nc21 [Nalidixic acid],MIC,[4]; Escherichia coli,> 64 µg/mL
COc1c(N2C[C@@H](C)C[C@H](N)C2)ccc2c(=O)c(C(=O)O)cn(C3CC3)c12 [Nemofloxacin],MIC,[4]; [19],> 64 µg/mL
CN[C@H](CC(C)C)C(=O)N[C@H]1C(=O)N[C@@H](CC(N)=O)C(=O)N[C@H]2C(=O)N[C@H]3C(=O)N[C@H](C(=O)N[C@H](C(=O)O)c4cc(O)cc(O)c4-c4cc3ccc4O)[C@H](O)c3ccc(c(Cl)c3)Oc3cc2cc(c3O[C@@H]2O[C@H](CO)[C@@H](O)[C@H](O)[C@H]2O[C@H]2C[C@](C)(N)[C@H](O)[C@H](C)O2)Oc2ccc(cc2Cl)[C@H]1O [Vancomycin],MIC,[4]; Escherichia coli,> 64 µg/mL
Gentamycin,MIC,[4]; drug-resistant Escherichia coli 1864,64 µg/mL
